# PubChem BioAssay AID1919014 (Molecular Pharmacology Branch, DTP, NCI, 2023)
# Test system: NCI-H1341 complex spheroids, percent test/control
# Test: Anticancer human tumor NCI-H1341 cell line growth inhibition [AhR];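 note: spheroids exposed to agents for seven days before readout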
# Settings: for IC50: curve of first compound; for viability, T/C: stronger effect = lower value
# Text: Multicellular complex tumor spheroid response to aryl hydrocarbon receptor antagonists in combination with a variety of drugs and investigational agents in selected tumor cell lines
# The current study was undertaken to assess response to aryl hydrocarbon receptor antagonists in combination with standard-of-care drugs and investigational agents in solid tumor complex spheroid models. Complex spheroids include a stromal component modeled by human endothelial cells (HUVEC) and fibroblasts modeled by human mesenchymal stem cells (MSCs). The concentration ranges selected for each drug and investigational agent were based upon clinically achievable concentrations if the clinical Cmax of the agent was known.
# Compounds. The drugs and investigational agents: BAY 2416964 (NSC825713), GNF351 (NSC835774), CH-223191 (NSC835775), CPI-455 (NSC825282), aza-TdCyd (NSC777586), decitabine (NSC127716), belinostat (NSC758774), entinostat (NSC756642), pevonedistat (NSC761192), tazemetostat (NSC777109), talazoparib (NSC765396), olaparib (NSC753686), selinexor (NSC780203), nedisertib (M3814, NSC802822), bortezomib (NSC756655), venetoclax (NSC766270), doxorubicin (NSC123127), elimusertib (BAY189344, NSC800525), ceralasertib (AZD6738, NSC777638), TAK-243 (NSC785004), alisertib (NSC759677), etoposide (NSC141540), topotecan (NSC609699), eribulin (NSC707389), gemcitabine (NSC613327), carboplatin (NSC241240), cisplatin (NSC119875), and SN-38 (NSC673596) were obtained from the National Cancer Institute (NCI) Developmental Therapeutics Program Chemical Repository (32). The FDA-approved anticancer drug set is available from the Developmental Therapeutics Program at https://dtp.cancer.gov/organization/dscb/obtaining/available plates.htm. […] The stock solutions were prepared in dimethyl sulfoxide (DMSO, Sigma-Aldrich, St. Louis, MO, cat. D2650), except for the platinum compounds which were prepared in saline (Quality Biological, Gaithersburg, MD, cat. 114-055-101), at 800-fold the tested concentration and stored at -70 degrees C prior to their use. All drugs and investigational agents were tested over a range starting from a high concentration at or near the clinical Cmax and decreasing in half-log increments. If the clinical Cmax for an agent had not been determined, the highest concentration tested was 10 microM (Table 1).
# Cell Culture. All cells were maintained in an incubator at 37 degrees C and 5% CO2 with 95% humidity. The PDC lines were cultured according to standard operating procedures established by the NCI PDMR (https://pdmr.cancer.gov). Briefly, all PDCs were thawed and cultured in Matrigel-coated flasks prepared with a working solution of 1X Ham's F-12 nutrient mix, without supplementation (Invitrogen, Waltham, MA, cat. 11765054), 100 U/mL penicillin-streptomycin (Invitrogen, cat. 15140122), and 2.5% Matrigel (Corning Inc., Corning, NY, cat. 354248) for the first three passages. All PDCs were cultured in complete DMEM/F-12 media containing advanced DMEM/F-12 (Invitrogen, cat. 12634028), 4.9% defined fetal bovine serum, heat inactivated (HyClone Laboratories Inc., Logan, UT, cat. SH30070.03HI), 389 ng/mL hydrocortisone (Sigma-Aldrich, cat. H4001), 9.7 ng/mL human EGF recombinant protein (Invitrogen, cat. PHG0313), 23.4 microg/mL adenine (Sigma-Aldrich, cat. A2786), 97.3 U/mL penicillin-streptomycin (Invitrogen, cat. 15140122), 1.9 mM L-glutamine (Invitrogen, cat. 25030081), and 9.7 microM Y-27632 dihydrochloride (Tocris Bioscience, Bristol, United Kingdom, cat. 1254). The PDCs were cultured in complete DMEM/F12 media without 10 microM Y-27632 dihydrochloride for at least two passages prior to the screen. The established cell lines NCI-H1341 and […] were cultured in DMEM/F-12, HEPES (Invitrogen, cat. 11330032), 5% defined fetal bovine serum (HyClone Laboratories Inc., cat. SH30070.03), ITS premix universal culture supplement [insulin (5 microg/mL), transferrin (5 microg/mL), and selenious acid (5 ng/mL)] […]
# [1] = second compound 0.1 µM, first compound 0.0316 µM
# [2] = second compound 0.1 µM, first compound 0.1 µM
# [3] = second compound 0.316 µM, first compound 0.0316 µM
# [4] = second compound 0.316 µM, first compound 0.1 µM
# [5] = second compound 1 µM, first compound 0.0316 µM
# [6] = second compound 1 µM, first compound 0.1 µM
# [7] = second compound 3.16 µM, first compound 0.0316 µM
# [8] = second compound 3.16 µM, first compound 0.1 µM
# [9] = second compound 10 µM, first compound 0.0316 µM
# [10] = second compound 10 µM, first compound 0.1 µM
structure (smiles),measurement,setting,value
CC[C@@]1(O)C(=O)OCc2c1cc1n(c2=O)Cc2cc3c(CN(C)C)c(O)ccc3nc2-1 + Cc1ccccc1N=Nc1ccc(NC(=O)c2ccnn2C)c(C)c1,IC50,second compound 0.1 µM,59.1 nM
same,IC50,second compound 0.316 µM,> 100 nM
same,IC50,second compound 1 µM,67.1 nM
same,IC50,second compound 3.16 µM,> 100 nM
same,IC50,second compound 10 µM,35.2 nM
same,"viability, T/C","second compound 0.1 µM, first compound 0.000316 µM",103%
same,"viability, T/C","second compound 0.1 µM, first compound 0.001 µM",99.8%
same,"viability, T/C","second compound 0.1 µM, first compound 0.00316 µM",91.1%
same,"viability, T/C","second compound 0.1 µM, first compound 0.01 µM",80.2%
same,"viability, T/C",[1],51.8%
same,"viability, T/C",[2],47.5%
same,"viability, T/C","second compound 0.316 µM, first compound 0.000316 µM",99.5%
same,"viability, T/C","second compound 0.316 µM, first compound 0.001 µM",83.4%
same,"viability, T/C","second compound 0.316 µM, first compound 0.00316 µM",97.7%
same,"viability, T/C","second compound 0.316 µM, first compound 0.01 µM",74.6%
same,"viability, T/C",[3],49.9%
same,"viability, T/C",[4],52.9%
same,"viability, T/C","second compound 1 µM, first compound 0.000316 µM",97.4%
same,"viability, T/C","second compound 1 µM, first compound 0.001 µM",83.5%
same,"viability, T/C","second compound 1 µM, first compound 0.00316 µM",82.3%
same,"viability, T/C","second compound 1 µM, first compound 0.01 µM",70.2%
same,"viability, T/C",[5],57.2%
same,"viability, T/C",[6],45.8%
same,"viability, T/C","second compound 3.16 µM, first compound 0.000316 µM",76.6%
same,"viability, T/C","second compound 3.16 µM, first compound 0.001 µM",94.7%
same,"viability, T/C","second compound 3.16 µM, first compound 0.00316 µM",65.5%
same,"viability, T/C","second compound 3.16 µM, first compound 0.01 µM",64.2%
same,"viability, T/C",[7],45.2%
same,"viability, T/C",[8],52.9%
same,"viability, T/C","second compound 10 µM, first compound 0.000316 µM",46.4%
same,"viability, T/C","second compound 10 µM, first compound 0.001 µM",58%
same,"viability, T/C","second compound 10 µM, first compound 0.00316 µM",51.6%
same,"viability, T/C","second compound 10 µM, first compound 0.01 µM",49.8%
same,"viability, T/C",[9],49.6%
same,"viability, T/C",[10],48.6%
NS(=O)(=O)OCC1CC(n2ccc3c(NC4CCc5ccccc54)ncnc32)CC1O (stereo not given) + Cc1ccccc1N=Nc1ccc(NC(=O)c2ccnn2C)c(C)c1,IC50,second compound 0.1 µM,113 nM
same,IC50,second compound 0.316 µM,63.3 nM
same,IC50,second compound 1 µM,111 nM
same,IC50,second compound 3.16 µM,110 nM
same,IC50,second compound 10 µM,< 31.6 nM
same,"viability, T/C",[1],51.6%
same,"viability, T/C",[2],56.5%
same,"viability, T/C","second compound 0.1 µM, first compound 0.316 µM",16.4%
same,"viability, T/C","second compound 0.1 µM, first compound 1 µM",7.98%
same,"viability, T/C","second compound 0.1 µM, first compound 3.16 µM",7.35%
same,"viability, T/C","second compound 0.1 µM, first compound 10 µM",6.54%
same,"viability, T/C",[3],59%
same,"viability, T/C",[4],44.2%
same,"viability, T/C","second compound 0.316 µM, first compound 0.316 µM",16.8%
same,"viability, T/C","second compound 0.316 µM, first compound 1 µM",9.99%
same,"viability, T/C","second compound 0.316 µM, first compound 3.16 µM",7.77%
same,"viability, T/C","second compound 0.316 µM, first compound 10 µM",6.89%
same,"viability, T/C",[5],61.5%
same,"viability, T/C",[6],53.1%
same,"viability, T/C","second compound 1 µM, first compound 0.316 µM",22.4%
same,"viability, T/C","second compound 1 µM, first compound 1 µM",11.4%
same,"viability, T/C","second compound 1 µM, first compound 3.16 µM",8.79%
same,"viability, T/C","second compound 1 µM, first compound 10 µM",6.95%
same,"viability, T/C",[7],51.5%
same,"viability, T/C",[8],53.4%
same,"viability, T/C","second compound 3.16 µM, first compound 0.316 µM",23.6%
same,"viability, T/C","second compound 3.16 µM, first compound 1 µM",11%
same,"viability, T/C","second compound 3.16 µM, first compound 3.16 µM",7.99%
same,"viability, T/C","second compound 3.16 µM, first compound 10 µM",6.85%
same,"viability, T/C",[9],40.4%
same,"viability, T/C",[10],35.7%
same,"viability, T/C","second compound 10 µM, first compound 0.316 µM",20.2%
same,"viability, T/C","second compound 10 µM, first compound 1 µM",10.3%
same,"viability, T/C","second compound 10 µM, first compound 3.16 µM",8.16%
same,"viability, T/C","second compound 10 µM, first compound 10 µM",5.99%
CCc1c2c(nc3ccc(O)cc13)-c1cc3c(c(=O)n1C2)COC(=O)[C@]3(O)CC + Cc1ccccc1N=Nc1ccc(NC(=O)c2ccnn2C)c(C)c1,IC50,second compound 0.1 µM,13.1 nM
same,IC50,second compound 0.316 µM,25.3 nM
same,IC50,second compound 1 µM,17.2 nM
same,IC50,second compound 3.16 µM,11.7 nM
same,IC50,second compound 10 µM,9.79 nM
same,"viability, T/C","second compound 0.1 µM, first compound 0.000949 µM",107%
same,"viability, T/C","second compound 0.1 µM, first compound 0.003 µM",67.5%
same,"viability, T/C","second compound 0.1 µM, first compound 0.00949 µM",53.4%
same,"viability, T/C","second compound 0.1 µM, first compound 0.03 µM",44.3%
same,"viability, T/C","second compound 0.1 µM, first compound 0.0949 µM",37%
same,"viability, T/C","second compound 0.1 µM, first compound 0.3 µM",15.3%
same,"viability, T/C","second compound 0.316 µM, first compound 0.000949 µM",92.9%
same,"viability, T/C","second compound 0.316 µM, first compound 0.003 µM",84%
same,"viability, T/C","second compound 0.316 µM, first compound 0.00949 µM",53.2%
same,"viability, T/C","second compound 0.316 µM, first compound 0.03 µM",49.5%
same,"viability, T/C","second compound 0.316 µM, first compound 0.0949 µM",40.1%
same,"viability, T/C","second compound 0.316 µM, first compound 0.3 µM",16.5%
same,"viability, T/C","second compound 1 µM, first compound 0.000949 µM",85.5%
same,"viability, T/C","second compound 1 µM, first compound 0.003 µM",74.9%
same,"viability, T/C","second compound 1 µM, first compound 0.00949 µM",50.3%
same,"viability, T/C","second compound 1 µM, first compound 0.03 µM",43.5%
same,"viability, T/C","second compound 1 µM, first compound 0.0949 µM",35.5%
same,"viability, T/C","second compound 1 µM, first compound 0.3 µM",13.5%
same,"viability, T/C","second compound 3.16 µM, first compound 0.000949 µM",75.7%
same,"viability, T/C","second compound 3.16 µM, first compound 0.003 µM",58.2%
same,"viability, T/C","second compound 3.16 µM, first compound 0.00949 µM",51%
same,"viability, T/C","second compound 3.16 µM, first compound 0.03 µM",43.5%
same,"viability, T/C","second compound 3.16 µM, first compound 0.0949 µM",29.7%
same,"viability, T/C","second compound 3.16 µM, first compound 0.3 µM",12.1%
same,"viability, T/C","second compound 10 µM, first compound 0.000949 µM",54.3%
same,"viability, T/C","second compound 10 µM, first compound 0.003 µM",48.9%
same,"viability, T/C","second compound 10 µM, first compound 0.00949 µM",48.4%
same,"viability, T/C","second compound 10 µM, first compound 0.03 µM",44.8%
same,"viability, T/C","second compound 10 µM, first compound 0.0949 µM",22.6%
same,"viability, T/C","second compound 10 µM, first compound 0.3 µM",7.81%
